According to patent US20260083751A1, “ALLOSTERIC MODULATORS OF ANDROGEN RECEPTOR COACTIVATOR RECRUITMENT FOR CRPC THERAPY” (University of Pittsburgh – Of the Commonwealth System of …, priority 2022, published 2026):
Values joined by “and” are separate entries in the source; they are usually repeats but may differ in a detail not shown here. Equal values may be shown once. Read-outs that look alike come from different tables or passages of the source.

Assays:
AR-LBD = biological target: T1, AR-LBD (Homo sapiens, UniProt P10275); experiment: H^3-DHT radioligand binding assay
T1 construct: The pET28a-AR-LBD (622-919) construct; made in house
T1 sequence (P10275 622-919): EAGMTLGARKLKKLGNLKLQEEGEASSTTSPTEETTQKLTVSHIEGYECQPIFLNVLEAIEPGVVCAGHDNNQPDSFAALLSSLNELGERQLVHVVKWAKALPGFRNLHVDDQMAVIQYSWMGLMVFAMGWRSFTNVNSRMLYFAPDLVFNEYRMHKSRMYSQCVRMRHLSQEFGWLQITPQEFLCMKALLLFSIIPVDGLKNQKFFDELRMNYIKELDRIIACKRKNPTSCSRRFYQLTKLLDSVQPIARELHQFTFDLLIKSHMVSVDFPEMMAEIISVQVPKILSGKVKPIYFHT
Description: H^3-DHT Radioligand Binding Assay: The His6-AR-LBD H^3-DHT competition binding assay has been described previously (Fancher et al., Assay Drug Dev Technol. 2016, 14:453-477; Fancher et al., Assay Drug Dev Technol. 2019, 17:364-386). Briefly, 96-well Cu^2+-coated plates (ThermoFisher) were incubated overnight at 4° C. with 5 µg per well His6-AR-LBD in 100 μL of PBS. Unbound His6-AR-LBD was aspirated, the plate was washed 3× with 100 μL of 0.05% Tween 20 in PBS and then blocked with 100 μL of 1 mg/mL BSA in PBS for 1 h. After three more washes with 100 μL of PBS and 0.05% Tween 20, 40 μL of PBS was added to wells followed by […] each of diluted compounds and 100 nM H^3-DHT transferred into the wells using a Matrix pipettor. Compounds were tested between 0.098 to 50 μM in the presence of 10 nM H^3-DHT. After 1 h, compounds and H^3-DHT were aspirated and washed 3× with 0.05% Tween 20 in PBS; 100 μL of Microscint™-20 micro-scintillation cocktail buffer (Perkin Elmer, Waltham, MA) was added to each well, plates were sealed with adhesive plastic covers; and the counts per minute (CPMs) were captured in a TopCount NXT microtiter plate reader (Perkin Elmer, Waltham, MA).

[1] = tested on: PC-3, DU-145, LNCaP, C4-2, and 22Rv1 PC cell lines; experiment: Prostate cancer cell line growth inhibition assays, results stated across cell lines; format: cell-based; conditions: for GI50s against all 5 PCa cell lines: all 5 cell lines, 72 h; for Relative potency in AR positive versus AR negative PC cell lines: 72 h growth inhibition; for GI50s against the 3 AR+ PCa cell lines: LNCaP, C4-2, 22Rv1
Description: Prostate Cancer Cell Line Growth Inhibition Assays: The PC-3, DU-145, LNCaP, C4-2, and 22Rv1 PC cell line growth inhibition assays have been described previously (Fancher et al., Assay Drug Dev Technol. 2016, 14:453-477; Fancher et al., Assay Drug Dev Technol. 2019, 17:364-386). On day 1, each PC cell line was harvested, counted, and seeded into two 384-well assay plates, a time zero (T0) and a time 72 h (T72) plate. PC cell lines were all seeded at 1,000 cells per well in 45 μL of tissue culture media in uncoated white clear bottom 384-well assay plates (VWR, #82050-076) using a Matrix electronic multichannel pipette (Thermo Fisher Scientific, Waltham, MA) and cultured overnight at 37° C., 5% CO2, and 95% humidity. On day 2, 25 μL of the CellTiter-Glo® (CTG) (Promega Corporation, Madison, WI) detection reagent was dispensed into the wells of the TO assay plate using a Matrix electronic multichannel pipette, and the RLUs were captured on the SpectraMax® M5e (Molecular Devices LLC, Sunnyvale, CA) microtiter plate reader. Also on day 2, 5 μL of compounds were transferred into the test wells of the T72 384-well assay plates which were returned to the incubator for 72 h. Control wells received DMSO alone. On day 5, 25 μL of the CTG detection reagent was dispensed into the wells of the T72 assay plate using a Matrix electronic multichannel pipette, and the RLU's were captured on the SpectraMax® M5e microtiter plate reader platform.
For the 96-well AR-LBD H^3-DHT radioligand binding assay, eight minimum and maximum plate control wells were utilized to normalize the data. For the PC cell line growth inhibition assays the DMSO control data from the TO and T72 assay plates was used to assess the dynamic range of the T0 to T72 cell growth, and to calculate S:B ratios and Z′-factor coefficient statistics for the assay signal window (T0 to T72). To normalize the 72 h compound exposure PC growth inhibition data, the signals from the compound treated wells were processed and expressed as % of the T72 DMSO plate controls. IC50 and GI50 values for each of the bioassays were calculated using GraphPad Prism 9 software to plot and fit data to curves using the Sigmoidal dose response variable slope equation Y=Bottom+[Top-Bottom]/[1+10^(Log EC50−X)*HillSlope].

[2] = 10 nM H^3-DHT, read-out: Inhibition H^3-DHT ligand binding to AR-LBD IC50
[3] = read-out: IC50 in H^3-DHT binding assay (potency range in words)

IC50 (AR-LBD; [2])	SMILES	Relative potency in AR positive versus AR negative PC cell lines [1]	also measured
> 100 µM	CC(=O)NCCC(=O)NCc1ccc2[nH]c(-c3ccccc3F)c(C)c2c1 [Compound S3-13]	roughly equipotent against all 5 PC cell lines	GI50s against 2 AR+ PCa cell lines ([1]; 2 AR+ cell lines, not named): 68 to 70 µM
63 µM	Cc1c(-c2ccccc2F)[nH]c2ccc(CNC(=O)c3ccc(CO)o3)cc12 [Compound S3-14]	differential cytotoxicity in AR positive PC cell lines	IC50 (AR-LBD; [3]): 10 to 100 µM; GI50s against the 3 AR+ PCa cell lines [1]: 30 to 100 µM
> 100 µM	Cc1c(-c2ccc(F)cc2)[nH]c2ccc(CNC(=O)c3ccc(CO)o3)cc12 [Compound S3-15]	roughly equipotent against all 5 PC cell lines	–
56 µM	Cc1cccc2c(-c3ccc(O)c(F)c3)c[nH]c12 [Compound S3-17]	roughly equipotent against all 5 PC cell lines	IC50 (AR-LBD; [3]): 10 to 100 µM
> 100 µM	CNC(=O)c1ccc(-c2c[nH]c3c(C)cccc23)cc1 [Compound S3-21]	differential cytotoxicity in AR positive PC cell lines	GI50s against 4 PCa cell lines ([1]; 4 cell lines, not named): 13 to 55 µM

More lines, now with the values behind:

SMILES	IC50 (AR-LBD; [2])	Relative potency in AR positive versus AR negative PC cell lines [1]	also measured
Cc1ccccc1-c1cc(O)c2c(c1)CN(c1nc(C(N)=O)cs1)CCO2 [Compound S1-1]	~44 µM and ~27 µM	–	IC50 (AR-LBD; 10 nM H^3-DHT, listed as 1, read-out: Inhibition H^3-DHT ligand binding to AR-LBD IC50): 26.7 µM; GI50s against all 5 PCa cell lines [1]: 29 to 70 µM
Cc1nc(N)cc(N2CCOc3c(O)cc(-c4ccccc4C)cc3C2)n1 [Compound S1-2]	> 100 µM	equipotent against all 5 PC cell lines	–
Cc1ccccc1-c1cc(O)c2c(c1)CN(c1nccs1)CCO2 [Compound S1-3]	> 100 µM	differential cytotoxicity in AR positive PC cell lines	GI50s against all 5 PCa cell lines [1]: 44 to 75 µM
Cc1ccccc1-c1cc(O)c2c(c1)CN(c1cc(N)ncn1)CCO2 [Compound S1-4]	–	equipotent against all 5 PC cell lines	–
COc1cc(-c2ccc(C)s2)cc2c1OCCN(c1nc(C(N)=O)cs1)C2 [Compound S1-5]	> 100 µM	–	GI50s against all 5 PCa cell lines [1]: > 100 µM
Cc1nsc(NC(=O)N2CCC(Sc3ccccc3C)CC2)n1 [Compound S2-6]	> 100 µM	–	GI50s against the 3 AR+ PCa cell lines [1]: 14 to 19 µM
Cc1nsc(NC(=O)N2CCC(Cn3ccnc3)CC2)n1 [Compound S2-7]	–	–	GI50s against the 3 AR+ PCa cell lines [1]: 30 to 64 µM; GI50s in AR negative cell lines ([1]; PC-3 and DU-145): ~94 µM; GI50s against all 5 PCa cell lines [1]: 30 to 94 µM
Cc1c(-c2ccccc2F)[nH]c2ccc(CNC(=O)CCc3cn[nH]c3)cc12 [Compound S3-11]	> 100 µM	differential cytotoxicity in AR positive PC cell lines	–
Cc1c(-c2ccccc2F)[nH]c2ccc(CNC(=O)CCc3cnccn3)cc12 [Compound S3-12]	> 100 µM	roughly equipotent against all 5 PC cell lines	–
